Patent US20170014354A1, “ZEAXANTHIN FOR TUMOR TREATMENT” (The New York Eye and Ear Infirmary, priority 2012, published 2017)

Tests used:
COLO829 = assay: MTT cell viability, COLO829 cutaneous melanoma; type: cell-based; details: 48 h, vs control
Experimental: (§1) Each malignant tumor cell line was cultured in Dulbecco's modified Eagle's medium (DMEM, GIBCO, Carlsbad, Calif.) supplemented with 10% fetal bovine serum (FBS, GIBCO). Cells were incubated in a humidified 5% CO2 atmosphere at 37° C. After reaching confluence, cells were detached by trypsin-EDTA solution (GIBCO), diluted 1:4-1:6, plated for subculture and were passaged routinely at a dilution of 1:4-1:6 every 4-6 days.
(§2) All cell lines were tested in triplicates.

LoVo = assay: MTT cell viability, LoVo colon cancer; type: cell-based; details: 48 h, vs control
Experimental: as §1, §2

HCT116 = assay: MTT cell viability, HCT116 colon cancer; type: cell-based; details: 48 h, vs control
Experimental: as §1, §2

SP6.5 [1] = assay: MTT cell viability, SP6.5 uveal melanoma; type: cell-based; details: vs control; for Cell viability: 48 h, MTT; for reduction of cell viabilities: FIG. 1B
Experimental: as §1, §2

OCM2 = assay: MTT cell viability, OCM2 uveal melanoma; type: cell-based; details: 48 h, vs control
Experimental: as §1, §2

DU-145 = assay: MTT cell viability, DU-145 prostate cancer; type: cell-based; details: 48 h, vs control
Experimental: as §1, §2

NCI-H358 = assay: MTT cell viability, NCI-H358 lung cancer; type: cell-based; details: 48 h, vs control
Experimental: as §1, §2

NCI-H820 = assay: MTT cell viability, NCI-H820 lung cancer; type: cell-based; details: 48 h, vs control
Experimental: as §1, §2

A549 = assay: MTT cell viability, A549 lung cancer; type: cell-based; details: for Cell viability: 48 h, MTT, vs control
Experimental: as §1, §2

MCF-7 = assay: MTT cell viability, MCF-7 breast cancer; type: cell-based; details: for Cell viability: 48 h, MTT, vs control
Experimental: as §1, §2

PANC-1 = assay: MTT cell viability, PANC-1 pancreatic cancer; type: cell-based; details: for Cell viability: 48 h, MTT, vs control
Experimental: as §1, §2

BC-1 = assay: MTT cell viability, BC-1 lymphoma; type: cell-based; details: for Cell viability: 48 h, MTT, vs control
Experimental: as §1, §2

SP6.5 [2] = assay: Phase-contrast microscopy of treated uveal melanoma cells; type: cell-based; details: SP6.5, 0, 30 and 100 μM zeaxanthin, 48 hr, 24-well plates
Experimental: FIGS. 2A, 2B and 2C illustrate the phase-contrast photomicrographs of uveal melanoma cells which have been treated with three different concentrations of zeaxanthin. Uveal melanoma cells (SP6.5 cell line) were seeded into 24-well plates and treated with zeaxanthin at 0 μM (2A), 30 μM (2B), and 100 μM (2C) levels for 48 hr.
Viability of cells treated with zeaxanthin was also visualized in the following tests. In these tests, the same amount of uveal melanoma cells were cultured and treated with zeaxanthin at different concentrations, and the treated cells were examined under microscope. Specifically, the uveal melanoma cell line SP6.5 was seeded into 24-well plates and treated with zeaxanthin at final concentrations of 0 μM, 30 μM, and 100 μM for 48 hr. […] The number of cells alive in FIG. 2A is more than that in FIG. 2B, which in turn is more than that in FIG. 2C.

malignant hepatic tumor = assay: Treatment of a patient with recurred malignant hepatic tumor; type: in vivo, human; details: one patient
Experimental: In this example, zeaxanthin was used to treat a patient with malignant hepatic tumor. […] The tumor recurred in a few months in the patient after resection. The patient was then treated with zeaxanthin in view of the extensive and safe use of zeaxanthin as a supplement of the treatment of macular disorders.
In treating the recurred malignant hepatic tumor in the patient, we prescribed a dose of 80 mg/day of zeaxanthin which was used to supplement their conventional treatment of Avastin® infusion. […] The patient's condition continued to improve under the combination therapy of zeaxanthin and Avastin® infusion in the next 9 months. The patient was able to resume their social life during the period of 9 months and then passed away after 2 months. The patient's life was prolonged more than 1 year following their projected mortality under the conventional Avastin® infusion treatment on the recurring malignant hepatic tumor.
Therefore, a dosage of about 1.2 mg/kg/d of zeaxanthin was sufficient to help reducing tumor cell viability in the patient under the combination therapy.

For `CC1=C(/C=C/C(C)=C/C=C/C(C)=C/C=C/C=C(C)/C=C/C=C(C)/C=C/C2=C(C)C[C@@H](O)CC2(C)C)C(C)(C)C[C@H](O)C1` [zeaxanthin], the Cell viability (COLO829; COLO829, 10 μM zeaxanthin) was 73 ± 4.6%, the Cell viability (COLO829; COLO829, 30 μM zeaxanthin) was 52 ± 2.0% and the Cell viability (COLO829; COLO829, 100 μM zeaxanthin) was 28 ± 1.2%. It also gave a Cell viability (LoVo; 10 μM zeaxanthin) of 76 ± 3.8%, a Cell viability (LoVo; 30 μM zeaxanthin) of 51 ± 2.5% and a Cell viability (LoVo; 100 μM zeaxanthin) of 32 ± 1.6%. For the same molecule, the Cell viability (HCT116; HCT116, 10 μM zeaxanthin) was 67 ± 3.7%, the Cell viability (HCT116; HCT116, 30 μM zeaxanthin) was 56 ± 2.3% and the Cell viability (HCT116; HCT116, 100 μM zeaxanthin) was 16 ± 1.4%. The Cell viability (SP6.5 [1]; SP6.5, 10 μM zeaxanthin) was 86 ± 4.3%, the “reduction of cell viabilities” value (SP6.5 [1]; SP6.5, 10 μM zeaxanthin) was “about 14%” and the Cell viability (SP6.5 [1]; SP6.5, 30 μM zeaxanthin) was 64 ± 1.7%. The “reduction of cell viabilities” value (SP6.5 [1]; SP6.5, 30 μM zeaxanthin) was ~36%, the Cell viability (SP6.5 [1]; SP6.5, 100 μM zeaxanthin) was 42 ± 2.2% and the “reduction of cell viabilities” value (SP6.5 [1]; SP6.5, 100 μM zeaxanthin) was ~58%. For the same molecule, the Cell viability (OCM2; OCM2, 10 μM zeaxanthin) was 90 ± 4.9%, the Cell viability (OCM2; OCM2, 30 μM zeaxanthin) was 70 ± 2.1% and the Cell viability (OCM2; OCM2, 100 μM zeaxanthin) was 46 ± 2.0%. For the same molecule, the Cell viability (DU-145; DU-145, 10 μM zeaxanthin) was 78 ± 5.0%, the Cell viability (DU-145; DU-145, 30 μM zeaxanthin) was 65 ± 5.5% and the Cell viability (NCI-H358; NCI-H358, 10 μM zeaxanthin) was 80 ± 3.5%. For the same molecule, the Cell viability (NCI-H358; NCI-H358, 30 μM zeaxanthin) was 65 ± 3.0%, the Cell viability (NCI-H358; NCI-H358, 100 μM zeaxanthin) was 37 ± 1.3% and the Cell viability (NCI-H820; NCI-H820, 10 μM zeaxanthin) was 76 ± 4.5%. The Cell viability (NCI-H820; NCI-H820, 30 μM zeaxanthin) was 68 ± 3.1%, the Cell viability (NCI-H820; NCI-H820, 100 μM zeaxanthin) was 38 ± 1.7% and the Cell viability (A549; A549, 10 μM zeaxanthin) was 94 ± 6.6%. The Cell viability (A549; A549, 30 μM zeaxanthin) was 86 ± 4.4%, the Cell viability (A549; A549, 100 μM zeaxanthin) was 67 ± 6.1% and the “final concentration at which cell viability decreased significantly” value (A549; A549, vs cells without zeaxanthin) was ≥ 100 µM. For the same molecule, the Cell viability (MCF-7; MCF-7, 10 μM zeaxanthin) was 86 ± 4.0%, the Cell viability (MCF-7; MCF-7, 30 μM zeaxanthin) was 73 ± 8.3% and the Cell viability (MCF-7; MCF-7, 100 μM zeaxanthin) was 52 ± 2.4%. The “final concentration at which cell viability decreased significantly” value (MCF-7; MCF-7, vs cells without zeaxanthin) was ≥ 30 µM, the “final concentration at which cell viability decreased significantly” value (PANC-1; PANC, vs cells without zeaxanthin) was ≥ 100 µM and the Cell viability (PANC-1; PANC-1, 10 μM zeaxanthin) was 101 ± 6.0%. For the same molecule, the Cell viability (PANC-1; PANC-1, 30 μM zeaxanthin) was 98 ± 5.5%, the Cell viability (PANC-1; PANC-1, 100 μM zeaxanthin) was 76 ± 5.1% and the Cell viability (BC-1; BC-1, 10 μM zeaxanthin) was 79 ± 8.2%. For the same molecule, the Cell viability (BC-1; BC-1, 30 μM zeaxanthin) was 67 ± 11%, the Cell viability (BC-1; BC-1, 100 μM zeaxanthin) was 69 ± 7.1% and the “final concentration at which cell viability decreased significantly” value (BC-1; BC-1, vs cells without zeaxanthin) was ≥ 30 µM. For the same molecule, the “number of cells seen under microscope” value (SP6.5 [2]) was “the number of cells in the culture that could be seen under microscope decreased progressively”, the “MRI scans of multiple recurrent hepatic tumors” value (malignant hepatic tumor; 80 mg/day zeaxanthin supplementing Avastin infusion, after several months) was “began to shrink significantly to the point of where the tumors could not be detected” and the “prolongation of life beyond projected mortality under conventional Avastin infusion” value (malignant hepatic tumor; 80 mg/day zeaxanthin with Avastin infusion) was “more than 1 year”.
